The experiment addresses AKT3 (Homo sapiens, UniProt Q9Y243). The experiment in a line: LANCE Ultra TR-FRET kinase assay with Ulight-crosstide substrate. In kind it is biochemical.

Chain of AKT3 (Q9Y243 2-479): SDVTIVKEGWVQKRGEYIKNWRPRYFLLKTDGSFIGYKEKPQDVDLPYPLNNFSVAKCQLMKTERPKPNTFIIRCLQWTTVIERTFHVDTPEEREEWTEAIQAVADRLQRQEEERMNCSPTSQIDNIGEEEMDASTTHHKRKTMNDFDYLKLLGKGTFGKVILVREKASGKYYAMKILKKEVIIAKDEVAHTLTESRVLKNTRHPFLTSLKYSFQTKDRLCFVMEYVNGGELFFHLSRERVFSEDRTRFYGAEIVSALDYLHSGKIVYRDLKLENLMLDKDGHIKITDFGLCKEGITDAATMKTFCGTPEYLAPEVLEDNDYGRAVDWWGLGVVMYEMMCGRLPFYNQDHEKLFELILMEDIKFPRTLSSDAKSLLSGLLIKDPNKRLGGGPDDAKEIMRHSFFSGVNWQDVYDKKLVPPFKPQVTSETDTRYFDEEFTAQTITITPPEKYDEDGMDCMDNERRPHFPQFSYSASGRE
Chain of AKT3 (O15530 whole entry partner): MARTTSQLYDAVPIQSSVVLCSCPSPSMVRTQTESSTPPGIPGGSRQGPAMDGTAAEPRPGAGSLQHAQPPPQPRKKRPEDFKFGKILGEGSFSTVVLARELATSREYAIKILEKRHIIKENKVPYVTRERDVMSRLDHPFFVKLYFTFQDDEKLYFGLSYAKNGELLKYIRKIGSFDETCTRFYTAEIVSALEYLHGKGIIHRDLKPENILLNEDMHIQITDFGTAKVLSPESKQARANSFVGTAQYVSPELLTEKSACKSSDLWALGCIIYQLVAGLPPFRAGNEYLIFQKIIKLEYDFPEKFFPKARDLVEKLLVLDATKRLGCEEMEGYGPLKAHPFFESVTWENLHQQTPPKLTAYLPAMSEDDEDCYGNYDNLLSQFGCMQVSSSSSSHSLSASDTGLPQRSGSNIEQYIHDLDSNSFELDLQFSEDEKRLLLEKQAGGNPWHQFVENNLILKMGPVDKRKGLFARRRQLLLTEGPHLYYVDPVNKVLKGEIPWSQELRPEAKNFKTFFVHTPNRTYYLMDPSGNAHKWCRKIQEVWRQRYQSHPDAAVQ

By IC50 is commonly meant the concentration at which inhibition is half-maximal. Low readings indicate higher potency, high ones lower potency. In turn, `CC(=O)N(C)[C@H]1CC[C@H](CC(=O)Nc2cc(-c3ccccc3)c(-c3ccc(C4(N)CCC4)cc3)cn2)CC1` [AKT3i, N-(5-(4-(1-aminocyclobutyl)phenyl)-4-phenylpyridin-2-yl)-2-((1r,4r)-4-(N-methylacetamido)cyclohexyl) acetamide] yielded a 50% inhibitory concentration (IC50) of 13 nM.
